# Patent US9469650B2, “Melampomagnolide B derivatives” (BOARD OF TRUSTEES OF THE UNIVERSITY OF ARKANSAS, priority 2013, dated 2016)
# Key:
# LOX IMVI = assay: panel of 60 human tumor cell lines, growth inhibition (Melanoma)
# UACC-257 = assay: as above; conditions: UACC-257
# SF-268 = assay: panel of 60 human tumor cell lines, growth inhibition (CNS Cancer); conditions: SF-268
# SF-295 = assay: as above; conditions: SF-295
# SNB-19 = assay: as above; conditions: SNB-19
# U251 = assay: as above; conditions: U251
# HCC-2998 = assay: panel of 60 human tumor cell lines, growth inhibition (Colon Cancer); conditions: HCC-2998
# SW-620 = assay: as above; conditions: SW-620
# A498 = assay: panel of 60 human tumor cell lines, growth inhibition (Renal Cancer); conditions: A498
# CAKI-1 = assay: as above; conditions: CAKI-1
# SN12C = assay: as above
# MDA-MB-231/ATCC = assay: panel of 60 human tumor cell lines, growth inhibition (Breast Cancer); conditions: MDA-MB-231/ATCC
# IGROV1 = assay: panel of 60 human tumor cell lines, growth inhibition (Ovarian Cancer); conditions: IGROVI
# OVCAR-5 = assay: as above; conditions: OVCAR-5
# PC-3 = assay: panel of 60 human tumor cell lines, growth inhibition (Prostate Cancer); conditions: PC-3
# A549/ATCC = assay: panel of 60 human tumor cell lines, growth inhibition (Non-Small Cell Lung Cancer); conditions: A549/ATCC
# HOP-62 = assay: as above; conditions: HOP-62
# HOP-92 = assay: as above; conditions: HOP-92
# NCI-H522 = assay: as above; conditions: NCI-H522
smiles,measurement,setting,value
C=C1C(=O)O[C@H]2[C@H]1CC/C(COC(=O)NCCN1CCCCC1)=C\CC[C@@]1(C)O[C@@H]21 [JVM 2-13],GI50,LOX IMVI,10.2 µM
same,TGI,LOX IMVI,23.9 µM
same,Percent Growth,LOX IMVI; Log10 Concentration −4.0,−84%
same,Percent Growth,LOX IMVI; Log10 Concentration −5.0,51%
same,Percent Growth,LOX IMVI; Log10 Concentration −6.0,94%
same,Percent Growth,LOX IMVI; Log10 Concentration −7.0,99%
same,Percent Growth,LOX IMVI; Log10 Concentration −8.0,102%
same,GI50,UACC-257,4.99 µM
same,TGI,UACC-257,19.2 µM
same,Percent Growth,UACC-257; Log10 Concentration −4.0,−86%
same,Percent Growth,UACC-257; Log10 Concentration −5.0,34%
same,Percent Growth,UACC-257; Log10 Concentration −6.0,86%
same,Percent Growth,UACC-257; Log10 Concentration −7.0,92%
same,Percent Growth,UACC-257; Log10 Concentration −8.0,94%
same,GI50,SF-268,9.67 µM
same,TGI,SF-268,24.4 µM
same,Percent Growth,SF-268; Log10 Concentration −4.0,−78%
same,Percent Growth,SF-268; Log10 Concentration −5.0,49%
same,Percent Growth,SF-268; Log10 Concentration −6.0,96%
same,Percent Growth,SF-268; Log10 Concentration −7.0,104%
same,Percent Growth,SF-268; Log10 Concentration −8.0,97%
same,GI50,SF-295,50.8 µM
same,TGI,SF-295,>100 µM
same,Percent Growth,SF-295; Log10 Concentration −4.0,32%
same,Percent Growth,SF-295; Log10 Concentration −5.0,94%
same,Percent Growth,SF-295; Log10 Concentration −6.0,96%
same,Percent Growth,SF-295; Log10 Concentration −7.0,95%
same,Percent Growth,SF-295; Log10 Concentration −8.0,90%
same,GI50,SNB-19,16.8 µM
same,TGI,SNB-19,15.1 µM
same,Percent Growth,SNB-19; Log10 Concentration −4.0,−71%
same,Percent Growth,SNB-19; Log10 Concentration −5.0,85%
same,Percent Growth,SNB-19; Log10 Concentration −6.0,96%
same,Percent Growth,SNB-19; Log10 Concentration −7.0,97%
same,Percent Growth,SNB-19; Log10 Concentration −8.0,98%
same,GI50,U251,17.5 µM
same,TGI,U251,13.5 µM
same,Percent Growth,U251; Log10 Concentration −4.0,−84%
same,Percent Growth,U251; Log10 Concentration −5.0,93%
same,Percent Growth,U251; Log10 Concentration −6.0,94%
same,Percent Growth,U251; Log10 Concentration −7.0,97%
same,Percent Growth,U251; Log10 Concentration −8.0,98%
same,GI50,HCC-2998,18.5 µM
same,TGI,HCC-2998,36 µM
same,Percent Growth,HCC-2998; Log10 Concentration −4.0,−77%
same,Percent Growth,HCC-2998; Log10 Concentration −5.0,96%
same,Percent Growth,HCC-2998; Log10 Concentration −6.0,104%
same,Percent Growth,HCC-2998; Log10 Concentration −7.0,105%
same,Percent Growth,HCC-2998; Log10 Concentration −8.0,99%
same,GI50,SW-620,2720 nM
same,TGI,SW-620,12.3 µM
same,Percent Growth,SW-620; Log10 Concentration −4.0,−74%
same,Percent Growth,SW-620; Log10 Concentration −5.0,7%
same,Percent Growth,SW-620; Log10 Concentration −6.0,83%
same,Percent Growth,SW-620; Log10 Concentration −7.0,96%
same,Percent Growth,SW-620; Log10 Concentration −8.0,100%
same,GI50,A498,11.8 µM
same,TGI,A498,25 µM
same,Percent Growth,A498; Log10 Concentration −4.0,−92%
same,Percent Growth,A498; Log10 Concentration −5.0,61%
same,Percent Growth,A498; Log10 Concentration −6.0,71%
same,Percent Growth,A498; Log10 Concentration −7.0,65%
same,Percent Growth,A498; Log10 Concentration −8.0,73%
same,GI50,CAKI-1,3.43 µM
same,TGI,CAKI-1,15.7 µM
same,Percent Growth,CAKI-1; Log10 Concentration −4.0,−98%
same,Percent Growth,CAKI-1; Log10 Concentration −5.0,24%
same,Percent Growth,CAKI-1; Log10 Concentration −6.0,80%
same,Percent Growth,CAKI-1; Log10 Concentration −7.0,92%
same,Percent Growth,CAKI-1; Log10 Concentration −8.0,89%
same,GI50,SN12C,3.75 µM
same,TGI,SN12C,16.2 µM
same,Percent Growth,SN12C; Log10 Concentration −4.0,−71%
same,Percent Growth,SN12C; Log10 Concentration −5.0,19%
same,Percent Growth,SN12C; Log10 Concentration −6.0,92%
same,Percent Growth,SN12C; Log10 Concentration −7.0,94%
same,Percent Growth,SN12C; Log10 Concentration −8.0,97%
same,GI50,MDA-MB-231/ATCC,5.69 µM
same,TGI,MDA-MB-231/ATCC,20.8 µM
same,Percent Growth,MDA-MB-231/ATCC; Log10 Concentration −4.0,−79%
same,Percent Growth,MDA-MB-231/ATCC; Log10 Concentration −5.0,37%
same,Percent Growth,MDA-MB-231/ATCC; Log10 Concentration −6.0,91%
same,Percent Growth,MDA-MB-231/ATCC; Log10 Concentration −7.0,99%
same,Percent Growth,MDA-MB-231/ATCC; Log10 Concentration −8.0,107%
same,GI50,IGROV1,5.59 µM
same,TGI,IGROV1,22.9 µM
same,Percent Growth,IGROV1; Log10 Concentration −4.0,−58%
same,Percent Growth,IGROV1; Log10 Concentration −5.0,33%
same,Percent Growth,IGROV1; Log10 Concentration −6.0,101%
same,Percent Growth,IGROV1; Log10 Concentration −7.0,106%
same,Percent Growth,IGROV1; Log10 Concentration −8.0,105%
same,GI50,OVCAR-5,10.6 µM
same,TGI,OVCAR-5,24.2 µM
same,Percent Growth,OVCAR-5; Log10 Concentration −4.0,−86%
same,Percent Growth,OVCAR-5; Log10 Concentration −5.0,53%
same,Percent Growth,OVCAR-5; Log10 Concentration −6.0,82%
same,Percent Growth,OVCAR-5; Log10 Concentration −7.0,87%
same,Percent Growth,OVCAR-5; Log10 Concentration −8.0,84%
same,GI50,PC-3,15.7 µM
same,TGI,PC-3,33.3 µM
same,Percent Growth,PC-3; Log10 Concentration −4.0,−73%
same,Percent Growth,PC-3; Log10 Concentration −5.0,80%
same,Percent Growth,PC-3; Log10 Concentration −6.0,94%
same,Percent Growth,PC-3; Log10 Concentration −7.0,96%
same,Percent Growth,PC-3; Log10 Concentration −8.0,97%
same,GI50,A549/ATCC,18.1 µM
same,TGI,A549/ATCC,42.2 µM
same,Percent Growth,A549/ATCC; Log10 Concentration −4.0,−51%
same,Percent Growth,A549/ATCC; Log10 Concentration −5.0,85%
same,Percent Growth,A549/ATCC; Log10 Concentration −6.0,94%
same,Percent Growth,A549/ATCC; Log10 Concentration −7.0,98%
same,Percent Growth,A549/ATCC; Log10 Concentration −8.0,95%
same,GI50,HOP-62,17 µM
same,Percent Growth,HOP-62; Log10 Concentration −4.0,−77%
same,Percent Growth,HOP-62; Log10 Concentration −5.0,88%
same,Percent Growth,HOP-62; Log10 Concentration −6.0,91%
same,Percent Growth,HOP-62; Log10 Concentration −7.0,95%
same,Percent Growth,HOP-62; Log10 Concentration −8.0,86%
same,GI50,HOP-92,1580 nM
same,TGI,HOP-92,11.2 µM
same,Percent Growth,HOP-92; Log10 Concentration −4.0,−83%
same,Percent Growth,HOP-92; Log10 Concentration −5.0,4%
same,Percent Growth,HOP-92; Log10 Concentration −6.0,61%
same,Percent Growth,HOP-92; Log10 Concentration −7.0,76%
same,Percent Growth,HOP-92; Log10 Concentration −8.0,82%
same,GI50,NCI-H522,1120 nM
same,TGI,NCI-H522,2.86 µM
same,Percent Growth,NCI-H522; Log10 Concentration −4.0,−65%
same,Percent Growth,NCI-H522; Log10 Concentration −5.0,−67%
same,Percent Growth,NCI-H522; Log10 Concentration −6.0,56%
same,Percent Growth,NCI-H522; Log10 Concentration −7.0,105%
same,Percent Growth,NCI-H522; Log10 Concentration −8.0,99%
